# Assays:
# [1] = system: Aβ42; assay: Aβ42 release from HEK cells stably expressing APPswe (MSD electrochemiluminescence); format: cell-based, Human; conditions: 4-6 h incubation with test compound, Aβ42 secreted to cell medium
# Description: The level of activity of the compounds on Aβ formation was tested using the following method:
# Compounds were diluted in 100% DMSO and stored at […] prior to use. Human Embryonic Kidney (HEK) cell line stably expressing APP with the Swedish mutation (APPswe) were cultured using Dulbecco's Modified Eagles medium (DMEM) supplied with […] glucose, Na-pyruvate and GlutaMAX with 10% FBS, 100 U/ml penicillin-streptomycin (PEST) respectively, 1× non-essential amino acids (NEAA), […] Hepes, 100 μg/ml Zeocine. Cells at about 80% confluence were washed with PBS, detached from culture flasks using 1× Trypsin/EDTA diluted in PBS, re-suspended in cell media and plated in 384-well poly-d-lysine coated cell culture plates at about 10000-15000 cells/well, in 25 μL cell media. Optionally, cryo-preserved cells (frozen and stored at −140° C. in 90% cell media and 10% DMSO) were thawed, washed and plated as above. Next the cells were incubated for 15-24 h at 37° C. and 5% CO2, after which cell medium was changed. Fresh medium containing test compound diluted ×200 from prepared compound plate was added to the cells before further incubation for 4-6 hours at 37° C. and 5% CO2. After incubation with test compound the amount of Aβ peptides, including Aβ42, Aβ40, Aβ39, Aβ38 and Aβ37, as well as total Aβ levels, secreted to cell medium was analyzed using the electrochemiluminescence assay technology from Meso Scale Discovery (MSD), in combination with specific antibodies raised against the different Aβ peptides. Aβ42, Aβ40 and Aβ38 antibodies were purchased from MSD and Aβ37 and Aβ39 were made in house. Total Aβ was measured using a combination of 6E10 and 4G8 anti Aβ antibodies from MSD. Potential cytotoxic effects of the compounds were usually assayed by measuring the ATP content (ViaLight) from cell lysate.
# [2] = system: Notch; assay: Release and translocation of Notch intracellular domain into the nucleus, HEK/AENotch cells (NICD immunostaining, ImageXpress); format: cell-based, Human; conditions: 3 μM Lactacystin, 4-6 h incubation, nucleus/cytosol NICD fluorescence ratio
# Description: The level of activity of the compounds on release and translocation of Notch intracellular domain into the cell nucleus was tested using the following method:
# Compounds were diluted in 100% DMSO and stored at […] prior to use. Human Embryonic Kidney cell line overexpressing Notchl-E-human-myc construct (referred to as HEK/AENotch) were cultured in T75 cm^2 or T225 cm^2 cell culture flasks using Dulbecco's Modified Eagles medium (DMEM) supplemented with […] glucose, Na-pyruvate and GlutaMAX with 10% FBS, 100 U/ml penicillin-streptomycin (PEST) respectively, 1× non-essential amino acids (NEAA), […] Hepes and 100 μg/ml Hygromycin. Cells at about 80% confluence were washed with PBS, detached from the flask bottom using 1× Trypsin/EDTA diluted in PBS, re-suspended in cell media and plated in 384-well plates at about 10000 cells/well, in 25 μL cell media. Optionally, cryo-preserved cells (frozen and stored at −140° C. in 90% cell media and 10% DMSO) were thawed, washed and plated as above. Next the cells were incubated for 15-24 h at 37° C. and 5% CO2, after which cell medium was replaced with fresh medium containing 3 μM Lactacystin and test compound diluted ×200 from prepared compound plate giving 0.5% final DMSO concentration, and the highest compound concentration typically 25 μM. Cells were then incubated 4-6 h with test compound before being fixed, washed and immunostained with NICD antibody (rabbit Notch 1 (C-20)). Image acquisition of cytosolic/membrane and nuclear fluorescence as well as subsequent analysis of the nucleus and cytosolic fluorescence ratio was carried out using ImageXpress. Potential cytotoxic effects of the compounds were usually assayed by analysis of nucleus area or cell number.
# [3] = Homo sapiens, HEK293, HEK cells expressing APPswe
IC50 ([1]; HEK cells expressing APPswe) [nM],"IC50 [1, 3] [nM]",SMILES,IC50 [2] [nM],IC50 ([2]; Homo sapiens) [nM]
16,–,"COc1nc(Nc2ccc3c(n2)OC(CC(F)(F)F)CN(C)C3C)ccc1-c1cnn(C)c1 (single isomer, unassigned) [Example 34, N-(6-Methoxy-5-(1-methyl-1H-pyrazol-4-yl)pyridin-2-yl)-4,5-dimethyl-2-(2,2,2-trifluoroethyl)-2,3,4,5-tetrahydropyrido[3,2-f][1,4]oxazepin-8-amine]",> 25000,–
60,–,"COc1nc(Nc2ccc3c(n2)O[C@H](c2ccc(F)cn2)CN(C)C3C)ccc1-c1cnn(C)c1 (single isomer, unassigned) [Example 50]",2310,–
18,–,"COc1nc(Nc2ccc3c(n2)OC(CCC(F)(F)F)CN(C)C3)ccc1-c1cnn(C)c1 (single isomer, unassigned; (-)) [Example 58, (−)-N-[6-Methoxy-5-(1-methylpyrazol-4-yl)-2-pyridyl]-4-methyl-2-(3,3,3-trifluoropropyl)-3,5-dihydro-2H-pyrido[3,2-f][1,4]oxazepin-8-amine]",> 25000,–
–,55,"Cc1ncn(-c2ccc(Nc3ccc4c(n3)OC(c3cccc(Cl)c3)CN(C)C4)nc2)n1 (stereo not shown) [Example 23, 2-(3-Chlorophenyl)-4-methyl-N-(5-(3-methyl-1H-1,2,4-triazol-1-yl)pyridin-2-yl)-2,3,4,5-tetrahydropyrido[3,2-f][1,4]oxazepin-8-amine]",–,> 2500
–,98,"COc1nc(Nc2ccc3c(n2)O[C@H](c2ccccc2)CN(C)C3)ccc1-c1cn[nH]c1 [Example 56, (2R)—N-[6-Methoxy-5-(1H-pyrazol-4-yl)-2-pyridyl]-4-methyl-2-phenyl-3,5-dihydro-2H-pyrido[3,2-f][1,4]oxazepin-8-amine]",–,> 25000
10,–,"COc1nc(Nc2cc(C)c3c(n2)OC(c2nc(C)cs2)CN(C)C3)ccc1-c1cnn(C)c1 (single isomer, unassigned) [Example 22, N-(6-Methoxy-5-(1-methyl-1H-pyrazol-4-yl)pyridin-2-yl)-4,6-dimethyl-2-(4-methylthiazol-2-yl)-2,3,4,5-tetrahydropyrido[3,2-f][1,4]oxazepin-8-amine]",–,1680
19,–,"COc1nc(Nc2ccc3c(n2)O[C@H](c2ccc(F)cn2)CN(C)C3C)ccc1-c1cnn(C)c1 (single isomer, unassigned) [Example 51]",> 25000,–
–,44,"Cc1cn(-c2ccc(Nc3ccc4c(n3)O[C@H](c3nc(C)cs3)CN(C)C4)nc2C#N)cn1 [Example 55, 3-(4-Methylimidazol-1-yl)-6-[[(2S)-4-methyl-2-(4-methylthiazol-2-yl)-3,5-dihydro-2H-pyrido[3,2-f][1,4]oxazepin-8-yl]amino]pyridine-2-carbonitrile]",–,> 25000
–,5,"COc1nc(Nc2ccc3c(n2)OC(CC(F)(F)F)CN(C)C3)ccc1-c1ccnc(C)c1 (stereo not shown) [Example 8, (2-Methoxy-2′-methyl-[3,4′]bipyridinyl-6-yl)-[6-methyl-8-(2,2,2-trifluoro-ethyl)-5,6,7,8-tetrahydro-9-oxa-1,6-diaza-benzocyclohepten-2-yl]-amine]",–,3250
7,–,"COc1nc(Nc2ccc3c(n2)OC(c2nc(C)cs2)C(C)N(C)C3)ccc1-n1cnc(C)c1 (single isomer, unassigned; (-)) [Example 59, (−)-N-(6-Methoxy-5-(4-methyl-1H-imidazol-1-yl)pyridin-2-yl)-3,4-dimethyl-2-(4-methylthiazol-2-yl)-2,3,4,5-tetrahydropyrido[3,2-f][1,4]oxazepin-8-amine]",–,> 25000
12,–,"COc1nc(Nc2ccc3c(n2)OC(CC(F)(F)F)CN(C)C3C)ccc1-c1cnn(C)c1 (single isomer, unassigned) [Example 36, N-(6-Methoxy-5-(1-methyl-1H-pyrazol-4-yl)pyridin-2-yl)-4,5-dimethyl-2-(2,2,2-trifluoroethyl)-2,3,4,5-tetrahydropyrido[3,2-f][1,4]oxazepin-8-amine]",> 25000,–
17,–,"COc1nc(Nc2ccc3c(n2)OC(c2nc(C)cs2)C(C)N(C)C3)ccc1-n1cnc(C)c1 (single isomer, unassigned; (+)) [Example 60, (+)-N-(6-Methoxy-5-(4-methyl-1H-imidazol-1-yl)pyridin-2-yl)-3,4-dimethyl-2-(4-methylthiazol-2-yl)-2,3,4,5-tetrahydropyrido[3,2-f][1,4]oxazepin-8-amine]",> 25000,–
21,–,"COc1nc(Nc2ccc3c(n2)OC(CC(F)(F)F)CN(C)C3)ccc1-c1cnn(C)c1 (single isomer, unassigned; (-)) [Example 5, (−)-N-(6-Methoxy-5-(1-methyl-1H-pyrazol-4-yl)pyridin-2-yl)-4-methyl-2-(2,2,2-trifluoroethyl)-2,3,4,5-tetrahydropyrido[3,2-f][1,4]oxazepin-8-amine]",> 25000,–
–,60,"COc1nc(Nc2ccc3c(n2)OC(c2ccc(C)cn2)CN(C)C3)ccc1-c1cnn(C)c1 (stereo not shown) [Example 41, N-(6-Methoxy-5-(1-methyl-1H-pyrazol-4-yl)pyridin-2-yl)-4-methyl-2-(5-methylpyridin-2-yl)-2,3,4,5-tetrahydropyrido[3,2-f][1,4]oxazepin-8-amine]",–,> 25000
9,–,"COc1nc(Nc2ccc3c(n2)OC(c2ncc(C)s2)CN(C)C3)ccc1-n1cnc(C)c1 (single isomer, unassigned; (-)) [Example 65, (−)-N-(6-Methoxy-5-(4-methyl-1H-imidazol-1-yl)pyridin-2-yl)-4-methyl-2-(5-methylthiazol-2-yl)-2,3,4,5-tetrahydropyrido[3,2-f][1,4]oxazepin-8-amine]",–,> 25000
68,–,"COc1nc(Nc2ccc3c(n2)OC(c2nc(C)cs2)C(C)N(C)C3)ccc1-c1cnn(C)c1 (single isomer, unassigned) [Example 29, N-(6-Methoxy-5-(1-methyl-1H-pyrazol-4-yl)pyridin-2-yl)-3,4-dimethyl-2-(4-methylthiazol-2-yl)-2,3,4,5-tetrahydropyrido[3,2-f][1,4]oxazepin-8-amine]",5000,–
–,18,"COc1nc(Nc2ccc3c(n2)O[C@H](c2nc(C)cs2)CN(C)C3)c(F)cc1-c1cnn(C)c1 [Example 54, (2S)—N-[3-Fluoro-6-methoxy-5-(1-methylpyrazol-4-yl)-2-pyridyl]-4-methyl-2-(4-methylthiazol-2-yl)-3,5-dihydro-2H-pyrido[3,2-f][1,4]oxazepin-8-amine]",–,6490
14,–,"COc1nc(Nc2ccc3c(n2)OC(c2nc(C)cs2)CN(C)C3)ccc1-c1cnn(C)c1 (single isomer, unassigned; (-)) [Example 11, (−)-N-(6-Methoxy-5-(1-methyl-1H-pyrazol-4-yl)pyridin-2-yl)-4-methyl-2-(4-methylthiazol-2-yl)-2,3,4,5-tetrahydropyrido[3,2-f][1,4]oxazepin-8-amine]",–,1440
5,–,"COc1nc(Nc2ccc3c(n2)OC(CCC(F)(F)F)CN(C)C3)ccc1-c1cnn(C)c1 (single isomer, unassigned; (+)) [Example 57, (+)-N-[6-Methoxy-5-(1-methylpyrazol-4-yl)-2-pyridyl]-4-methyl-2-(3,3,3-trifluoropropyl)-3,5-dihydro-2H-pyrido[3,2-f][1,4]oxazepin-8-amine]",> 11500,–
–,61,Cc1cn(-c2ccc(Nc3ccc4c(n3)OC(CC(F)(F)F)CN(C)C4)nc2C#N)cn1 (stereo not shown) [Example 48],–,> 25000

# — patent US20120122843A1, “Compounds and Their Use for Treatment of Amyloid Beta-Related Diseases” (ASTRAZENECA AB, priority 2010, published 2012)
